Results taken from the NIST ThermoML archive (doi:10.1021/je050031f).

Assay: xn = mol fraction of the nth substance listed
Conditions: 100.8 kPa, Liquid

CC1CCCCC1 [methylcyclohexane] + CCO
Conditions	mass density, 288.15 K [kg/m3]	mass density, 298.15 K [kg/m3]	mass density, 308.15 K [kg/m3]	viscosity, 288.15 K [mPa·s]	viscosity, 298.15 K [mPa·s]	viscosity, 308.15 K [mPa·s]
x2 = 0	–	765	756.3	–	0.685	0.6
x2 = 0.05	–	764.6	755.8	–	0.674	0.589
x2 = 0.1	–	764.7	755.7	–	0.67	0.588
x2 = 0.15	–	764.8	755.8	–	0.667	0.585
x2 = 0.2	–	765.1	756.1	–	0.673	0.588
x2 = 0.25	–	765.4	756.4	–	0.681	0.593
x2 = 0.3	–	765.8	756.8	–	0.694	0.602
x2 = 0.35	–	766.2	757.2	–	0.707	0.612
x2 = 0.4	–	766.8	757.8	–	0.722	0.623
x2 = 0.45	–	767.4	758.4	–	0.739	0.635
x2 = 0.5	–	768.1	759.1	–	0.757	0.65
x2 = 0.55	–	768.9	759.9	–	0.778	0.666
x2 = 0.6	–	769.8	760.8	–	0.799	0.683
x2 = 0.65	–	770.8	761.8	–	0.82	0.7
x2 = 0.7	–	772	763.1	–	0.843	0.72
x2 = 0.75	782.1	773.4	764.5	1.043	0.867	0.74
x2 = 0.8	783.6	774.9	766	1.077	0.894	0.762
x2 = 0.85	785.4	776.7	767.9	1.114	0.926	0.79
x2 = 0.9	787.7	779	770.2	1.164	0.971	0.828
x2 = 0.95	790.4	781.8	773	1.225	1.021	0.867
